# Like-named read-outs stand apart in the source and are kept apart here.
# Columns and labels:
# WiDr cells = assay: WiDr CellTiter-Glo 3D cell proliferation assay; assay type: cell-based; conditions: Homo sapiens; WiDr cells, 3D proliferation; read-out: 3D WiDr pGI50 (converted)
# HCT-116 cells = assay: HCT-116 CellTiter-Glo 3D cell proliferation assay; assay type: cell-based; conditions: Homo sapiens, HCT-116; HCT116 cells, 3D proliferation; read-out: 3D HCT116 pGI50 (converted)
# Description: HCT-116 CellTiter-Glo 3D Cell Proliferation Assay
# The human HCT-116 colorectal carcinoma cell line (ATCC CCL-247) endogenously expresses the KRAS^G13D mutation, which leads to enhanced survival and proliferative signaling. […] On the first day, HCT-116 cells were harvested, resuspended in growth medium (McCoys5A with Glutamax (Life Technologies 36600021) with 10% heat-inactivated fetal bovine serum (Sigma F9665)), and counted. Cells were plated in 100 μl per well in each well of a Corning 7007 96-well clear round bottom Ultra-Low Attachment plate (VWR 444-1020) to a final density of 1000 cells per well. Cells were seeded for pre- and post-treatment readouts. The cells were then incubated at 37° C. and 5% CO2 for 3 days (72 hours) to allow spheroid formation. After 72 hours, the plate seeded for a pre-treatment read was removed from the incubator to allow equilibration to room temperature for 30 minutes, before CellTitre-Glo® reagent was added to each well. The plates were incubated at room temperature for 5 minutes shaking at 300 rpm, followed by an incubation of 25 minutes on the benchtop before being read on the Envision reader (Perkin Elmer) as described below. On the same day, the cells plated for the post-treatment readout were dosed with compounds to produce a 9-point dose response, where the top concentration was 15 μM and following concentrations were at 1/2 log dilution intervals. These cells were subsequently incubated at 37° C. and 5% CO2 for another 4 days (96 hours). After 4 days, the plate was removed from the incubator to allow equilibration to room temperature for 30 minutes and treated with CellTitre Glo® reagent as stated above. […] The CellTitre Glo® reagent lyses the cells and contains luciferin and a luciferase (Ultra-Glo™ Recombinant Luciferase), which in the presence of ATP and oxygen can produce bioluminescence from luciferin. Therefore, plates were read on an EnVision reader (Perkin Elmer) and luminescence signals were recorded. Cell proliferation was determined on 4 days after dosing relative to the pre-treatment read. All data were analyzed using the Dotmatics or GraphPad Prism software packages. Inhibition of proliferation was assessed by determination of the GI50 value, which was defined as the concentration of compound required to decrease the level of cell proliferation by 50% when compared to DMSO control.
# FeSSIF solubility assay = assay type: physicochemical; conditions: pH 5 acetate buffer, 37° C.; for solubility thermodynamic at 24 h: fed state simulated intestinal fluid (FeSSIF), thermodynamic from solid
# Outline: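 FeSSIF (pH 5 acetate buffer, 1 mL) was added to 1.0 mg solid compound and shaken at 650 rpm and 37 °C for 24 h. After filtration, dissolved compound was quantified by LC-UV against a 250 μM calibration standard.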
SMILES,GI50 (WiDr cells) [nM],GI50 (HCT-116 cells) [nM],solubility thermodynamic at 24 h (FeSSIF solubility assay; read-out: Sol (FESSIF)) [µg/mL],FESSIF Sol (FeSSIF solubility assay; 24 h) [mg/L],solubility thermodynamic at 24 h (FeSSIF solubility assay; read-out: FESSIF Sol) [µg/mL]
"O=C1CCc2c(Oc3ccc4c(c3)CC(c3nc(-c5ccnc(C(F)(F)F)c5)c[nH]3)CO4)ccnc2N1 (stereo not shown) [Compound 8, 5-[3-[4-[2-(trifluoromethyl)-4-pyridyl]-1H-imidazol-2-yl]chroman-6-yl]oxy-3,4-dihydro-1H-1,8-naphthyridin-2-one]",191,138,18.5,18.5,
"Cc1cc(-c2c[nH]c(C3COc4ccc(Oc5ccnc6c5CCC(=O)N6)cc4C3)n2)ccn1 (stereo not shown) [Compound 117, 5-[3-[4-(2-methyl-4-pyridyl)-1H-imidazol-2-yl]chroman-6-yl]oxy-3,4-dihydro-1H-1,8-naphthyridin-2-one]",708,214,,,1.4
"O=C1CCc2c(Oc3ccc4c(c3)CC(c3nc(-c5cncc(C(F)(F)F)c5)c[nH]3)CO4)ccnc2N1 (stereo not shown) [Compound 103, 5-[3-[4-[5-(trifluoromethyl)-3-pyridyl]-1H-imidazol-2-yl]chroman-6-yl]oxy-3,4-dihydro-1H-1,8-naphthyridin-2-one]",537,288,,,5.2

# — patent US12304912B2, “Fused bicyclic RAF inhibitors and methods for use thereof” (Jazz Pharmaceuticals Ireland Limited, priority 2020, dated 2025)
